The values that follow are results of earlier work, collected in patent US20210386741A1, “FORMULATIONS OF IBRUTINIB” (Zhuhai Beihai Biotech Co., Ltd., priority 2016, published 2021).

For data set [1] the following is noted: oral.
The next data set relates to human plasma protein. The settings on record: in vitro, no concentration dependence in the range of 50 to 1000 ng/mL.

For `C=CC(=O)N1CCC[C@@H](n2nc(-c3ccc(Oc4ccccc4)cc3)c3c(N)ncnc32)C1` [ibrutinib], the solubility in water entry is given as “practically insoluble in water”. For the same molecule, in data set [1] (fasted condition (n=8), 90% CI=2.1−3.9), the Absolute bioavailability was 2.9%. The “change of absolute bioavailability when combined with a meal” value in data set [1] (with a meal versus fasted) is reported as “doubled”. For the same molecule, in data set [1] (with food compared with after overnight fasting), the “increase of AUC on administration with food” value is given as “approximately 2 fold”. In the data set with human plasma protein, the “reversible binding to human plasma protein” value was 97.3%.
